# Legend:
# [1] = tested on: human mesenchymal stem cells (BMMSC); assay: Cell proliferation, CellTiter 96 (MTT); format: cell-based; settings: TGF-β1 10 ng/ml; stayed at a lower proliferation rate than the control groups
# Procedure: (§1) The cells were trypsinized and then counted using trypan blue. 60×10^3 or 15×10^3 mesenchymal stem cells were seeded in a 25 cm^2 cell culture bottle or in a 12-well plate. Each vessel was charged with an appropriate amount of standard medium (control group) or a medium which contained the joint or meniscus extract (of bovine origin) in a dilute solution of 1:25 or 1:50. Recombinant TGF-β1 protein (R&D Systems) with a concentration of 10 ng/ml was used for chondrocytic differentiation of the BMMSC as positive control. Cell supernatants were collected and stored at −80° C.
# Investigations on the cell proliferation were carried out using “CellTiter 96 Non-Radio-active” (Promega). This is a method based on 3-(4,5-dimethylthiazol-2-yl)-2,5-diphenyltetrazolium bromide (MTT) which determines the property of metabolically active cells of converting a tetrazolium salt. For example, the conversion of pale yellow MTT by cellular dehydrogenases into the dark blue, water-insoluble formazan is proportional to the activity of the dehydrogenases and thus to the survival rate of the cells. The absorbance is measured at a wavelength of 595 nm. The cells were counted and seeded in a density of […] in a 96-well round-bottom plate. The cell proliferation was determined on day 1, 3, 7 and 14. […] The absorbance was measured at the wavelength of 595 nm with a reference wavelength of 655 nm.
# BMMSC [2] = assay: Quantification of chondroitin sulfate (Alcian blue); format: cell-based, human; settings: parallel addition of 10 ng/ml TGF-β1
# Procedure: as §1
# The cells were washed with the PBS and then incubated with Alcian blue stain (1% Alcian blue in 3% strength acetic acid) for 20 minutes. The cells were decolorized by washing three times with 3% strength acetic acid and washing once with water. To quantify the stain which has been taken up, the cells were solubilized by shaking in 1% strength SDS solution at room temperature for 30 minutes and then heating at 90° C. for one hour. The absorbance was detected at the wavelength of 595 nm.
# BMMSC [3] = assay: Real time RT-PCR of cartilage-specific differentiation markers (SOX9, Aggrecan); format: cell-based, human; settings: transcription level; treatment with TGF-β1
# Procedure: Total cellular ribonucleic acid (RNA) was extracted using “NucleoSpin RNA II” from Macherey-Nagel. 1 μg of the RNA was amplified using a “one-step RT-PCR kit” (ABgene, UK). Real time (RT) PCR primers specific for collagen type I, SOX9, Aggrecan and glyceraldehyde-3-phosphate dehydrogenase (GAPDH) were used. Amplification of the so-called housekeeping gene GAPDH was used to verify the quality of the RNA and ensure uniform loading of resolving gels with the samples. A real time reverse transcription PCR was carried out using a LightCycler (Roche Diagnostic). The RT-PCR conditions included an RT step of 20 minutes at 61° C. to produce single-stranded cDNA from mRNA, followed by an inactivation of reverse transcriptase and denaturation at 95° C. for 30 seconds. 40 amplification cycles of one second at 95° C., of 15 seconds at 58° C. and of 13 seconds at 72° C. were carried out. Finally, a cooling step of 30 seconds at 40° C. was carried out.
# BMMSC [4] = assay: Aggrecan immunofluorescence; format: cell-based, human; settings: day 14; recombinant TGF-β1 only
# Procedure: The cells were seeded in a density of 15×10^3 in a 12-well plate. 14 days after the treatment with the extracts, the cells were washed with PBS and then fixed with ice-cold 70% strength ethanol for at least 18 hours. The cells were then blocked in 3% strength goat serum (normal goat serum NGS) for one hour, and thereafter mouse anti-Aggrecan antibodies (Chemicon) were used with a concentration of 1 μg/ml and incubated at 4° C. for at least 18 hours. The primary antibodies were then removed, the cells were washed three times with PBS and subsequently incubated with anti-mouse FITC-conjugated IgM (Molecular Probes) in a ratio of 1:1000 for one hour. The secondary antibodies were removed and the cells were washed three times with the PBS. A negative control was carried out with the secondary antibody. After the incubation, the cells were washed, put on supports and inspected using a fluorescence microscope.
substance,measurement,setting,value
"TGF-β1: Recombinant TGF-β1 protein (R&D Systems), 10 ng/ml, positive control for chondrocytic differentiation",cell proliferation,[1],graduated increase
same,chondroitin sulfate,BMMSC [2],increase in chondroitin sulfate
same,mRNA for aggrecan,BMMSC [3],significantly increased
same,number of aggrecan-positive cells compared with the untreated control samples,BMMSC [4],larger numbers
